# Source: patent publication US8178506B2, “Oligomeric compounds and compositions for use in modulation of small non-coding RNAs” (Regulus Therapeutics Inc., priority 2003, dated 2012)
# In the oligonucleotide strings, read from the 5' end, every base follows the letter of its sugar. An asterisk marks phosphorothioate; unmarked linkages are phosphodiester. Other units and linkages are bracketed, terminal groups are in braces. A string of capitals states the bases alone. e = 2'-O-(2-methoxyethyl) (MOE); [5mC] = 5-methylcytosine
# How the values were obtained:
# mir-23b miRNA = experiment: pGL3-mir-23b sensor luciferase assay in HeLa cells; assay type: cell-based, human; settings: pGL3-mir-23b sensor-expressing HeLa cells
# Text: In order to assess the ability of miRNAs to bind predicted miRNA binding sites and regulate the expression of the luciferase reporter, in some embodiments, expression systems based on the pGL3-Control (Promega Corp., Madison Wis.) reporter vector and comprising either a mir-15a, mir-21, or a mir-23b miRNA binding site were developed and used in transient transfections of HeLa cells to determine whether the endogenous mir-15a, mir-21, or mir-23b miRNAs, respectively, could repress luciferase reporter gene expression.
# The pGL3-mir-23b sensor plasmid was created by cloning the sequence ([…]; SEQ ID NO: 307), representing a sequence complementary to the mir-23b miRNA, into the Xba site of the pGL3-Control plasmid, placing the potential miRNA-binding site in the 3′UTR of the luciferase reporter. This reporter plasmid was used to transfect HeLa cells and it was observed that the endogenous mir-23b miRNA was able to inhibit luciferase expression from the pGL3-mir-23b sensor plasmid. Thus, to further evaluate the ability of the mir-23b miRNA to bind this target site encoded by the pGL3-mir-23b sensor plasmid, and to assess the ability of oligomeric compounds to interfere with mir-23b-mediated silencing, pGL3-mir-23b sensor-expressing HeLa cells were treated with varying concentrations (1.3-, 5- or 20 nM) of the following oligomeric compounds: ISIS Number 327889 (SEQ ID NO: 307), a phosphorothioate uniform 2′-MOE oligomeric compound, and ISIS Number 340925 (SEQ ID NO: 307), a 2′-MOE 5-10-8 gapmer oligomeric compound, both targeting mir-23b. The uniform 2′-MOE phosphorothioate oligomeric compound ISIS Number 327924 (SEQ ID NO: 342) targeting an unrelated miRNA (mir-129-2) was used as a negative control. The data are the average of three trials, and are presented in Table 43 as relative luciferase activity (normalized to pRL-CMV luciferase plasmid only, not treated with oligomeric compound).
# [1] = system: mir-143 binding site within the coding sequence of ERK5; experiment: pGL3-ERK5-cds luciferase assays in HeLa cells; assay type: cell-based, human; settings: for luciferase expression: HeLa cells, 24 hours
# Method: An expression system based on the pGL3-Control (Promega Corp., Madison Wis.) reporter vector and comprising predicted miRNA binding sites was used in transient transfections of HeLa cells with plasmids expressing oligomeric compounds mimicking miRNAs, pre-miRNAs or pri-miRNAs in order to assess the ability of these miRNA mimics to bind and regulate the expression of the luciferase reporter. The effect of increasing the copy number of the miRNA-binding site in the target was also tested by including multiple binding sites in artificial reporter constructs. It is understood that the presence of multiple miRNA-binding sites in a target can include binding sites for different miRNAs.
# The following reporter plasmids were constructed by cloning the specified fragment into the XbaI site of the pGL3-control plasmid, placing the potential miRNA-binding site in the 3′-UTR of the luciferase reporter: The reporter plasmid pGL3-bulge(×3) contains three contiguous copies of the sequence ([…]; herein incorporated as SEQ ID NO: 874) which represents a sequence complementary to the mir-143 miRNA except that it is missing 2 nucleotides such that the mir-143 miRNA is presumed to adopt a bulged structure when it hybridizes to this target sequence. The pGL3-GLO1 reporter plasmid contains a DNA fragment comprising the 3′-UTR of the GLO1 sequence; this fragment was PCR-amplified using a primer beginning at nucleotide number 621 of the GLO1 sequence (GenBank Accession NM_006708.1, SEQ ID NO: 821) and the downstream primer hybridizing to the poly A tail. The pGL3-PP2A reporter plasmid contains a DNA fragment comprising the 3′-UTR of the PP2A gene; this fragment was PCR-amplified using a primer beginning at nucleotide number 921 of the PP2A sequence (GenBank Accession NM_004156.1) and the downstream primer hybridizing to the poly A tail. The reporter plasmid pGL3-ERK5-3′-UTR(×1) contains one copy of the sequence […] (herein incorporated as SEQ ID NO: 875), found in the 3′-UTR of ERK5 and predicted by Lewis, et al. to be bound by the mir-143 miRNA, and the reporter plasmid pGL3-ERK5-3′UTR(×3) has three contiguous copies of this sequence. The reporter plasmid pGL3-ERK5-3′UTR(ext) contains one copy of the sequence […] (herein incorporated as SEQ ID NO: 876), which includes an additional ten nucleotides at either end of the mir-143 binding site in 3′-UTR of ERK5 predicted by Lewis, et al. (Lewis et al., Cell, 2003, 115, 787-798). The plasmids pGL3-ERK5-cds(×1), pGL3-ERK5-cds(×2), pGL3-ERK5-cds(×3), and pGL3-ERK5-cds(×5) contain one, two, three or five contiguous copies, respectively, of the novel mir-143 binding site ([…]; herein incorporated as SEQ ID NO: 877) we identified within the coding sequence of ERK5. The unmodified pGL3-Control luciferase reporter vector was used as a negative control, and the pGL3-mir-143 sensor reporter plasmid was used as a positive control.
# HeLa cells were routinely cultured and passaged as described. In some embodiments, HeLa cells were transfected with 0.05 μg of the relevant pGL3-sensor plasmid and 0.01 μg pRL-CMV plasmid. Additionally, in some embodiments, cells were treated at various dosages (11 nM, 33 nM, and 100 nM) with the following oligomeric compound mimics: 1) ds-mir-143, or 2) ds-Control as described. In accordance with methods described in Example 12, a luciferase assay was performed 24-hours after transfection. The results, shown in Tables 40 and 41, are an average of three trials. Data are presented as percent untreated control (luciferase plasmid only, not treated with oligomeric compound) luciferase expression, normalized to pRL-CMV levels.
Substance,Fold change luciferase (mir-23b miRNA; 1.3 nM),Fold change luciferase (mir-23b miRNA; 5 nM),Fold change luciferase (mir-23b miRNA; 20 nM),"luciferase expression from pGL3-ERK5-cds(×1) or pGL3-ERK5-cds(×2) ([1]; HeLa, 100 nM)","luciferase activity from pGL3-ERK5-cds(×3) or pGL3-ERK5-cds(×5) ([1]; HeLa, 11, 33 and 100 nM)","luciferase activity from pGL3-ERK5-cds(×5), dose response ([1]; HeLa, 11, 33 and 100 nM)","luciferase activity from pGL3-ERK5-cds(×1) or pGL3-ERK5-cds(×2) ([1]; HeLa, 11- or 33 nM)","luciferase expression ([1]; Table 41, pGL3-ERK5-cds(x1), 11 nM) [percent untreated control]","luciferase expression ([1]; Table 41, pGL3-ERK5-cds(x1), 33 nM) [percent untreated control]","luciferase expression ([1]; Table 41, pGL3-ERK5-cds(x1), 100 nM) [percent untreated control]","luciferase expression ([1]; Table 41, pGL3-ERK5-cds(x2), 11 nM) [percent untreated control]","luciferase expression ([1]; Table 41, pGL3-ERK5-cds(x2), 33 nM) [percent untreated control]","luciferase expression ([1]; Table 41, pGL3-ERK5-cds(x2), 100 nM) [percent untreated control]","luciferase expression ([1]; Table 41, pGL3-ERK5-cds(x3), 11 nM) [percent untreated control]","luciferase expression ([1]; Table 41, pGL3-ERK5-cds(x3), 33 nM) [percent untreated control]","luciferase expression ([1]; Table 41, pGL3-ERK5-cds(x3), 100 nM) [percent untreated control]","luciferase expression ([1]; Table 41, pGL3-ERK5-cds(x5), 11 nM) [percent untreated control]","luciferase expression ([1]; Table 41, pGL3-ERK5-cds(x5), 33 nM) [percent untreated control]","luciferase expression ([1]; Table 41, pGL3-ERK5-cds(x5), 100 nM) [percent untreated control]"
327924 (antisense eG*e[5mC]*eA*eA*eG*e[5mC]*e[5mC]*e[5mC]*eA*eG*eA*e[5mC]*e[5mC]*eG*e[5mC]*eA*eA*eA*eA*eA*eG) [compound 327924],1.15,0.68,0.92,–,–,–,–,–,–,–,–,–,–,–,–,–,–,–,–
"ds-mir-143: double-stranded RNA of ISIS 342199 hybridized to its perfect complement ISIS 342200 (sense UGAGAUGAAGCACUGUAGCUCA; antisense UGAGCUACAGUGCUUCAUCUCA; RNA, backbone not given here)",–,–,–,did reduce luciferase expression,reduction in luciferase activity,dose-responsiveness,did not appear to inhibit luciferase activity,101.3,115.4,77.4,92.7,113.8,63.6,73.5,77.9,49.4,49.4,44.5,23.9
